According to patent US20220073496A1, “NOVEL QUINOLINE DERIVATIVE INHIBITOR” (Nanjing Transthera Biosciences Co., Ltd., priority 2018, published 2022):

Tests used:
[1] = Stability in liver microsome of dogs; format: in vitro ADME; details: Dog liver microsome 0.5 mg protein/mL, compound 1 μM, 37° C.; for half-life at 1 μM / microsomal CLint at 1 μM: liver microsomes
Experimental: Assay 1: Stability assessment of the compounds of the present invention in liver microsome of mice and dogs
(§1) Test substances: the compounds of the present invention, wherein the structures and preparations thereof were as described above.
The composition of the incubation system:
Preparation of Test Substances:
An appropriate amount of the compound was accurately weighed and dissolved in DMSO to prepare a 5.0 mM stock solution. The 5.0 mM stock solution was diluted to 1.0 mM with DMSO, and finally diluted with water to a 10 μM test substance working solution for use (the DMSO content in the reaction system was 0.1%).
(1) The liver microsome (20 mg protein/mL) was taken out from the −80° C. refrigerator, pre-incubated at 37° C. with a water-bathing constant temperature vibrator for 3 minutes, and melted for use.
(2) A mixed solution of the incubation system (excluding compounds and β-NADPH) according to the above “composition of the incubation system” for the assay was prepared, and pre-incubated at 37° C. with a water-bathing constant temperature vibrator for 2 minutes.
(3) Control group (excluding β-NADPH): 30 μL of water and 30 μL of compound working solution (10 μM) were added to 240 μL of the mixed solution of the incubation system of step (2), and vortexed for 30 seconds to mix well. The total reaction volume was 300 μL. A duplicate sample was prepared. The sample was incubated at 37° C. with a water-bathing constant temperature vibrator. The timekeeping began and the sampling time points were set at 0 minute and 60 minutes.
(4) Sample group: 70 μL of β-NADPH solution (10 mM) and 70 μL of compound working solution (10 μM) were added to 560 μL of the mixed solution of step (2). The total reaction volume was 700 μL. The resulting mixture was vortexed for 30 seconds to mix well. A duplicate sample was prepared. The sample was incubated at 37° C. with a water-bathing constant temperature vibrator. The timekeeping began and the sampling time points were set at 0 minute, 5 minutes, 10 minutes, 20 minutes, 30 minutes, and 60 minutes after timekeeping.
(5) After vortexing for 3 minutes, the sample was centrifuged at 4000 rpm for 10 minutes.
(6) 50 μL of the supernatant was taken and 150 μL of water was added. The resulting mixture was vortexed to mix well, and analyzed by LC/MS/MS.
The half-life (t1/2) and clearance rate (Cl) were calculated using the following first-order kinetic formula:
Vd=1/protein content in liver microsome
Note: k was the slope of the logarithm of the remaining amount of the compound versus time, and Vd was the apparent distribution volume.

Mer (h) = target: T1, Mer (h) (Homo sapiens, UniProt Q12866); test: Enzymatic activity test, Mer (h); format: biochemical; details: 10 μM [γ-33P]-ATP, 40 minutes, room temperature
T1 construct: purchased
T1 sequence (Q12866 21-999): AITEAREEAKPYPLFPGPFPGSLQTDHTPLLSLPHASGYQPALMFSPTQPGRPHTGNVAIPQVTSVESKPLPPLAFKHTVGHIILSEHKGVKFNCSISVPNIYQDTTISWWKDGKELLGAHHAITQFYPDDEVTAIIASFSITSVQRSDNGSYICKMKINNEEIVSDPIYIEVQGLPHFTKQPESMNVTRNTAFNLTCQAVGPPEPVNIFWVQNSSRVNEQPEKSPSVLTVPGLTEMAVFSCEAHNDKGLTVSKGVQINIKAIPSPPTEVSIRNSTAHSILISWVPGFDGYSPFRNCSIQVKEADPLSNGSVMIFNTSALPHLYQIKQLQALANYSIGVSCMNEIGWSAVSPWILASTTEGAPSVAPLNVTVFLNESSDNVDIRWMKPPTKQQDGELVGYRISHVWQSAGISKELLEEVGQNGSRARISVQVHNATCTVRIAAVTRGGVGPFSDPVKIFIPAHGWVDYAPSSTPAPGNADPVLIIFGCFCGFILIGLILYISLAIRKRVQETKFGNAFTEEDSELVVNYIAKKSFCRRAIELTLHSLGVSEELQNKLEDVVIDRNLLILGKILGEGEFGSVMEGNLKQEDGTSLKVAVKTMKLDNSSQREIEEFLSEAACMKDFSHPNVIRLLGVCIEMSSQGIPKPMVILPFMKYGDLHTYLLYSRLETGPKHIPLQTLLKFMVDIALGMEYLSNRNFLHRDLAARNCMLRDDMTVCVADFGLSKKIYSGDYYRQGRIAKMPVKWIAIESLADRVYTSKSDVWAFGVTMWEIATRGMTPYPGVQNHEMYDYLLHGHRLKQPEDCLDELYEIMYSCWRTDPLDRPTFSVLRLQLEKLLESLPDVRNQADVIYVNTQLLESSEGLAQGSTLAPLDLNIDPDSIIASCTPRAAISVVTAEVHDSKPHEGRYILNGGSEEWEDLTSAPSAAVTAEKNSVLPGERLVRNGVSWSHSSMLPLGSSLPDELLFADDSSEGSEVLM
Experimental: Assay 3: Enzymatic Activity Test of the Compounds of the Present Invention
as §1
(1) Preparation of the Compound Stock Solution
The compound was dissolved in 100% DMSO to prepare a stock solution with a maximum concentration of 500 μM.
(2) Preparation of the Compound Working Solution
The compound stock solution was diluted to final concentrations of 500, 150, 50, 15, 5, 1.5, 0.5, 0.15 and 0.05 μM to become the compound working solutions (50×).
(3) Preparation of Different Enzyme Reaction Solutions
The Mer (h) enzyme was dissolved in 8 mM MOPS (pH 7.0), 0.2 mM EDTA, 30 mM NaCl, and 250 μM GGMEDIYFEFIVIGGKKK to prepare an enzyme solution having a final concentration of 3.1 nM. The enzymatic reaction was activated by using 10 mM magnesium acetate and 10 μM [γ-^33P]-ATP to form an Mg/ATP mixed solution.
In a 384-well plate, the compound working solution was added to final concentrations of 10000, 3000, 1000, 300, 100, 30, 10, 3, and 1 nM. Then different enzyme reaction solutions prepared according to the above conditions were added. The incubation was carried out for 40 minutes at room temperature. The test was terminated by the addition of a 0.5% phosphoric acid solution. 10 μL of the reaction solution was taken and dropped to the P30 filter paper. The filter paper was washed 4 times with 0.425% phosphoric acid solution and once with methanol, and then placed on a scintillation counter. The […] IC50 values were calculated using GraphPad 5.0 software.

| Structure (SMILES) | half-life at 1 μM [1] [min] | microsomal CLint at 1 μM [1] [µL/min/mg] | IC50 (Mer (h)) [nM] | t1/2 [1] |
| --- | --- | --- | --- | --- |
| COc1cc2nccc(Oc3cnc(NC(=O)c4cn(C(C)C)nc(-c5ccc(F)cc5)c4=O)nc3)c2cc1OC [Compound 39, N-(5-((6,7-dimethoxyquinolin-4-yl)oxy)pyrimidine-2-yl)-6-(4-fluorophenyl)-2-isopropyl-5-oxo-2,5-dihydropyridazine-4-carboxamide] | – | – | 3 | →∞ |
| COc1cc2nccc(Oc3ncc(NC(=O)c4cn(C(C)C)nc(-c5ccc(F)cc5)c4=O)cn3)c2cc1OC [Compound 40, N-(2-((6,7-dimethoxyquinolin-4-yl)oxy)pyrimidine-5-yl)-6-(4-fluorophenyl)-2-isopropyl-5-oxo-2,5-dihydropyridazine-4-carboxamide] | – | – | 12 | →∞ |
| COc1cc2nccc(Oc3ncc(NC(=O)c4nn(C(C)C)cc(-c5ccc(F)cc5)c4=O)cn3)c2cc1OC [Compound 34, N-(2-((6,7-dimethoxyquinolin-4-yl)oxy)pyrimidine-5-yl)-5-para-fluorophenyl-1-isopropyl-4-oxo-1,4-dihydropyridazine-3-carboxamide] | 495 | 2.8 | 2 | – |
| COc1cc2nccc(Oc3ccc(NC(=O)c4cn(C(C)C)cc(-c5ccc(C)cc5)c4=O)nc3)c2cc1OC [Compound 1, N-(5-((6,7-dimethoxyquinolin-4-yl)oxy)pyridin-2-yl)-1-isopropyl-4-oxo-5-p-tolyl-1,4-dihydropyridin-3-carboxamide] | 12.6 | 110 | 2 | – |
| COc1cc2nccc(Oc3cnc(NC(=O)c4cn(C5CC5)cc(-c5ccc(F)cc5)c4=O)nc3)c2cc1OC [Compound 32, 1-cyclopropyl-N-(5-((6,7-dimethoxyquinolin-4-yl)oxy)pyrimidine-2-yl)-5-(4-fluorophenyl)-4-oxo-1,4-dihydropyridin-3-carboxamide] | 210 | 6.6 | 2 | – |
| COc1cc2nccc(Oc3cnc(NC(=O)c4nn(C5CC5)cc(-c5ccc(F)cc5)c4=O)nc3)c2cc1OC [Compound 33] | – | – | < 1 | →∞ |
| COc1cc2nccc(Oc3ccc(NC(=O)c4cn(C(C)C)nc(-c5ccc(F)cc5)c4=O)cn3)c2cc1OC [Compound 38, N-(6-((6,7-dimethoxyquinolin-4-yl)oxy)pyridin-3-yl)-6-para-fluorophenyl-2-isopropyl-5-oxo-2,5-dihydropyridazine-4-carboxamide] | – | – | 3 | – |

Further lines, results first:

| half-life at 1 μM [1] [min] | microsomal CLint at 1 μM [1] [µL/min/mg] | IC50 (Mer (h)) [nM] | t1/2 [1] | Structure (SMILES) |
| --- | --- | --- | --- | --- |
| 116 | 12 | < 1 | – | COc1cc2nccc(Oc3ccc(NC(=O)c4nn(C5CC5)cc(-c5ccc(F)cc5)c4=O)cn3)c2cc1OC [Compound 36] |
| 144 | 9.6 | – | – | COc1cc2nccc(Oc3ccc(NC(=O)c4cn(C5CC5)nc(-c5ccc(F)cc5)c4=O)cn3)c2cc1OC [Compound 43, 2-cyclopropyl-N-(6-((6,7-dimethoxyquinolin-4-yl)oxy)pyridin-3-yl)-6-para-fluorophenyl-5-oxo-2,5-dihydropyridazine-4-carboxamide] |
| 12.5 | 111 | – | – | COc1cc2nccc(Oc3ccc(NC(=O)c4nn(C5CC5)cc(-c5ccc(C)cc5)c4=O)nc3)c2cc1OC [Compound 46, 1-cyclopropyl-N-(5-((6,7-dimethoxyquinolin-4-yl)oxy)pyridin-2-yl)-4-oxo-5-p-tolyl-1,4-dihydropyridazine-3-carboxamide] |
| 154 | 9 | 2 | – | COc1cc2nccc(Oc3ccc(NC(=O)c4cn(C(C)C)cc(-c5ccc(F)cc5)c4=O)nc3)c2cc1OC [Compound 14, N-(5-((6,7-dimethoxyquinolin-4-yl)oxy)pyridin-2-yl)-5-(4-fluorophenyl)-1-isopropyl-4-oxo-1,4-dihydropyridin-3-carboxamide] |
| 578 | 2.4 | – | – | COc1cc2nccc(Oc3cnc(NC(=O)c4cn(C5CC5)nc(-c5ccc(F)cc5)c4=O)nc3)c2cc1OC [Compound 45, 2-cyclopropyl-N-(5-((6,7-dimethoxyquinolin-4-yl)oxy)pyrimidine-2-yl)-6-(4-fluorophenyl)-5-oxo-2,5-dihydropyridazine-4-carboxamide] |
| 56.3 | 24.6 | < 1 | – | COc1cc2nccc(Oc3ccc(NC(=O)c4cn(C5CC5)cc(-c5ccc(F)cc5)c4=O)nc3)c2cc1OC [Compound 30, N-(5-((6,7-dimethoxyquinolin-4-yl)oxy)pyridin-2-yl)-1-cyclopropyl-4-oxo-5-para-fluorophenyl-1,4-hydropyridin-3-carboxamide] |
| – | – | – | →∞ | COc1cc2nccc(Oc3ccc(NC(=O)c4cn(C5CC5)nc(-c5ccc(F)cc5)c4=O)nc3)c2cc1OC [Compound 42, 2-cyclopropyl-N-(5--((6,7-dimethoxyquinolin-4-yl)oxy)pyridin-2-yl)-6-(4-fluorophenyl)-5-oxo-2,5-dihydropyridazine-4-carboxamide] |
| – | – | < 1 | →∞ | COc1cc2nccc(Oc3ccc(NC(=O)c4nn(C5CC5)cc(-c5ccc(F)cc5)c4=O)nc3)c2cc1OC [Compound 31] |
| 224 | 6.2 | < 1 | – | COc1cc2nccc(Oc3ccc(NC(=O)c4nn(C(C)C)cc(-c5ccc(F)cc5)c4=O)nc3)c2cc1OC [Compound 15, N-(5-((6,7-dimethoxyquinolin-4-yl)oxy)pyridin-2-yl)-5-(4-fluorophenyl)-1-isopropyl-4-oxo-1,4-dihydropyridazine-3-carboxamide] |
| – | – | 2 | – | COc1cc2nccc(Oc3ccc(NC(=O)c4cn(C(C)C)nc(-c5ccc(F)cc5)c4=O)nc3)c2cc1OC [Compound 41, N-(5-((6,7-dimethoxyquinolin-4-yl)oxy)pyridin-2-yl)-6-(4-fluorophenyl)-2-isopropyl-5-oxo-2,5-dihydropyridazine-4-carboxamide] |
